Broadly, the IC50 is the point on the concentration scale where inhibition reaches its midpoint.

T1 sequence (P42858 with tags, fused parts or gaps with the stated changes limits assumed): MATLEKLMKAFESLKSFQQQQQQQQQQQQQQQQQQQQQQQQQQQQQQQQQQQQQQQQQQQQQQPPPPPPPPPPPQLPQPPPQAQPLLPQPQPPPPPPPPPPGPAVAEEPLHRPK

This assay has as its target T1, MBP-HTT(1-89)Q46-His(6×) (“Exon1-Q46”) protein aggregates (Homo sapiens, UniProt P42858, INS38QQQQQQQQQQQQQQQQQQQQQQQQQ).
T1 construct: MBP-HTT(1-89)Q46-His(6×); His(6×) (C); made in house
The assay can be described thus: Exon1-Q46 Radioligand Binding Assay. The conditions noted are these: displacement of 0.3 nM [3H3-methyl]-5-((5-methoxypyridin-2-yl)methoxy)-2-(pyrazin-2-yl)benzo[d]oxazole from 1 μM aggregated Exon1-Q46, 60 minutes at 37° C.; read-out: Potency Range (IC50). Here is the method: Exon1-Q46 Radioligand Binding Assay
For experiments 30 μM MBP-Exon1-Q46 was incubated with 150 μg/mL thrombin in assay buffer (150 mM NaCl, 50 mM Tris pH 8.0) and 2 mM CaCl2 for 16 hours at 37° C. Aggregated Exon1-Q46 was pelleted by centrifugation for 5 minutes at 13,000 rpm in a bench top centrifuge and re-dissolved in the same volume of assay buffer. […] For the RBA, Q46 protein aggregates and test compounds were pre-incubated in assay buffer for 20 minutes at room temperature, in 100 μL/well in a 96-well plate (pp, round bottom). Then, ligand was added in 50 μL/well and incubated for 60 minutes at 37° C. Final assay concentrations were […] test compound, 1 μM Exon1-Q46 protein (equivalent monomer concentration) and 0.3 nM ligand [^3H3-methyl]-5-((5-methoxypyridin-2-yl)methoxy)-2-(pyrazin-2-yl)benzo[d]oxazole. Samples were transferred onto GF/B filter plates and washed 2× with 200 μL PBS using a Filtermate Harvester. After drying filter plates for 1 hour at 55° C., the back of the plates were sealed with foil and 30 μL/well scintillation fluid (Packard MicroScint 40) added, incubated for 15 minutes in the dark and counted in a MicroBeta reader. […] IC50 values were determined with a sigmoidal inhibition model with four variables (top, bottom, slope, IC50) in a global fit using the normalized replicate data.
Regarding `COc1ccc(NC(=O)[C@H]2CC[C@@H]2n2c(=O)c3cccn3c3ccccc32)nc1` (racemic) [Example 17-1, (1SR,2SR)—N-(5-Methoxypyridin-2-yl)-2-{4-oxo-4H,5H-pyrrolo[1,2-a]quinoxalin-5-yl}cyclobutane-1-carboxamide], the IC50 is less than 100 nM.
Under `C[C@@H]1CN(C(=O)CCCn2c(=O)c3cccn3c3ccc(F)cc32)C[C@@H](C)O1` [Example 1-1, 5-{4-[(2R,6R)-2,6-Dimethylmorpholin-4-yl]-4-oxobutyl}-7-fluoro-4H,5H-pyrrolo[1,2-a]quinoxalin-4-one] stands less than 100 nM.
Then `C[C@@H]1C[C@H](C)CN(C(=O)CCCn2c(=O)c3cccn3c3ccc(F)cc32)C1` [Example 1-2], with less than 100 nM; and `C[C@H]1C[C@H](C)CN(C(=O)CCCn2c(=O)c3cccn3c3ccc(F)cc32)C1` [Example 1-3], with less than 100 nM; and `C[C@H]1CN(C(=O)CCCn2c(=O)c3cccn3c3ccc(F)cc32)C[C@H](C)O1` [Example 1-4], with less than 100 nM.
Then `C[C@@H]1CN(C(=O)CCCn2c(=O)c3cccn3c3ccc(F)cc32)C[C@H](C)O1` [Example 1-5], with less than 100 nM.
For the compound `O=C(CCCn1c(=O)c2cccn2c2ccc(F)cc21)Nc1ccccn1` [Example 1-6], the IC50 is less than 100 nM.
Then `O=C(CCCn1c(=O)c2cccn2c2ccc(F)cc21)NCc1cccnc1` [Example 1-7], with 100 to 500 nM; and `O=C(CCCn1c(=O)c2cccn2c2ccc(F)cc21)N1CCc2ccccc2C1` [Example 1-8], with less than 100 nM.
`O=C(CCCn1c(=O)c2cccn2c2ccc(F)cc21)Nc1ccccc1` [Example 1-9]: the IC50 was less than 100 nM.
As for `Cc1ccc(NC(=O)CCCn2c(=O)c3cccn3c3ccc(F)cc32)cc1` [Example 1-10], the IC50 is less than 100 nM.
As to `Cc1cccc(NC(=O)CCCn2c(=O)c3cccn3c3ccc(F)cc32)c1` [Example 1-11], the IC50 is less than 100 nM.
`COc1ccc(NC(=O)CCCn2c(=O)c3cccn3c3ccc(F)cc32)cc1` [Example 1-12]: the IC50 was less than 100 nM.
Regarding `O=C(CCCn1c(=O)c2cccn2c2ccc(F)cc21)N1Cc2ccccc2C1` [Example 1-13], the IC50 is less than 100 nM.
For `COc1cccc(NC(=O)CCCn2c(=O)c3cccn3c3ccc(F)cc32)c1` [Example 1-14], the IC50 is less than 100 nM.
On to `O=C(CCCn1c(=O)c2cccn2c2ccc(F)cc21)NCc1ccccc1` [Example 1-15], for which the IC50 is less than 100 nM.
On to `O=C(CCCn1c(=O)c2cccn2c2ccc(F)cc21)Nc1ccncc1` [Example 1-16], for which the IC50 was less than 100 nM.
Under `COc1ccccc1NC(=O)CCCn1c(=O)c2cccn2c2ccc(F)cc21` [Example 1-17] stands less than 100 nM.
Under `O=C(CCCn1c(=O)c2cccn2c2ccc(F)cc21)NCCc1cccnc1` [Example 1-18] stands less than 100 nM; under `O=C(CCCn1c(=O)c2cccn2c2ccc(F)cc21)NCC1CCCCC1` [Example 1-19], less than 100 nM.
Then `O=C(CCCn1c(=O)c2cccn2c2ccc(F)cc21)NCCc1ccccc1` [Example 1-20], with less than 100 nM; and `Cc1ccccc1NC(=O)CCCn1c(=O)c2cccn2c2ccc(F)cc21` [Example 1-21], with less than 100 nM; and `O=C(CCCn1c(=O)c2cccn2c2ccc(F)cc21)Nc1cccc(Cl)c1` [Example 1-22], with less than 100 nM.
With `COc1ccc(N(C)C(=O)CCCn2c(=O)c3cccn3c3ccc(F)cc32)cc1` [Example 1-23], the IC50 is less than 100 nM.
Consider `O=C(CCCn1c(=O)c2cccn2c2ccc(F)cc21)Nc1cccnc1` [Example 1-24], for which the IC50 was less than 100 nM.
Then `O=C(CCCn1c(=O)c2cccn2c2ccc(F)cc21)Nc1ccccc1Cl` [Example 1-25], with less than 100 nM.
For `O=C(CCCn1c(=O)c2cccn2c2ccc(F)cc21)Nc1ccc(Cl)cc1` [Example 1-26], the IC50 was less than 100 nM.
Under `CC(C)NC(=O)CCCn1c(=O)c2cccn2c2ccc(F)cc21` [Example 1-27] stands 100 to 500 nM.
Take `O=C(CCCn1c(=O)c2cccn2c2ccc(F)cc21)NC1CCCC1` [Example 1-28]: the IC50 lay within 100 to 500 nM.
As for `CN1CCN(C(=O)CCCn2c(=O)c3cccn3c3ccc(F)cc32)CC1` [Example 1-29], the IC50 is 100 to 500 nM.
Then `CN(C)CCNC(=O)CCCn1c(=O)c2cccn2c2ccc(F)cc21` [Example 1-30], with 500 to 10000 nM.
Turning to `COCCNC(=O)CCCn1c(=O)c2cccn2c2ccc(F)cc21` [Example 1-31], the IC50 lay in the range of 100 to 500 nM.
Under `COC1CCC(NC(=O)CCCn2c(=O)c3cccn3c3ccc(F)cc32)CC1` (centres unmarked) [Example 1-32] stands 100 to 500 nM.
Under `CNC(=O)CCCn1c(=O)c2cccn2c2ccc(F)cc21` [Example 1-33] stands 100 to 500 nM; under `CCNC(=O)CCCn1c(=O)c2cccn2c2ccc(F)cc21` [Example 1-34], 100 to 500 nM; under `O=C(CCCn1c(=O)c2cccn2c2ccc(F)cc21)NC1CCCCC1` [Example 1-35], 100 to 500 nM.
Then `COC1CCN(C(=O)CCCn2c(=O)c3cccn3c3ccc(F)cc32)C1` (centres unmarked) [Example 1-36], with less than 100 nM.
`O=C(CCCn1c(=O)c2cccn2c2ccc(F)cc21)N1CCC(C(F)(F)F)CC1` [Example 1-37]: the IC50 is less than 100 nM.
Then `O=C(CCCn1c(=O)c2cccn2c2ccc(F)cc21)N1CCCC1` [Example 1-38], with less than 100 nM.
Then `O=C(CCCn1c(=O)c2cccn2c2ccc(F)cc21)NC1CCC(C(F)(F)F)CC1` (centres unmarked) [Example 1-39], with less than 100 nM.
`CN(C)C(=O)CCCn1c(=O)c2cccn2c2ccc(F)cc21` [Example 1-40]: the IC50 is less than 100 nM.
Under `CN1CCN(C(=O)CCCn2c(=O)c3cccn3c3ccc(F)cc32)CC1=O` [Example 1-41] stands less than 100 nM.
Then `COC1CCCN(C(=O)CCCn2c(=O)c3cccn3c3ccc(F)cc32)C1` (centres unmarked) [Example 1-42], with less than 100 nM.
Under `COc1ccc(NC(=O)CCCn2c(=O)c3cccn3c3ccc(F)cc32)nc1` [Example 1-43] stands less than 100 nM; under `COc1ccnc(NC(=O)CCCn2c(=O)c3cccn3c3ccc(F)cc32)c1` [Example 1-44], less than 100 nM; under `O=C(CCCn1c(=O)c2cccn2c2ccc(F)cc21)N1CCCC(C(F)(F)F)C1` (centres unmarked) [Example 1-45], less than 100 nM.
For the compound `CC1CCC(N(C)C(=O)CCCn2c(=O)c3cccn3c3ccc(F)cc32)CC1` (centres unmarked) [Example 1-46], the IC50 is less than 100 nM.
For the compound `C[C@@H]1CN(C(=O)CCCn2c(=O)c3cccn3c3ccc(F)cc32)C[C@@H]1C` [Example 1-47], the IC50 was less than 100 nM.
On to `C[C@@H]1CN(C(=O)CCCn2c(=O)c3cccn3c3ccc(F)cc32)C[C@H]1C` [Example 1-48], for which the IC50 is less than 100 nM.
Then `C[C@@H]1CN(C(=O)CCn2c(=O)c3cccn3c3ccc(F)cc32)C[C@H]1C` [Example 1-49], with less than 100 nM; and `Cc1ccc(NC(=O)CCCn2c(=O)c3cccn3c3ccncc32)cc1` [Example 2-1, 4-(7-Oxo-2,8,11-triazatricyclo[7.4.0.0^2,6]trideca-1(9),3,5,10,12-pentaen-8-yl)-N-(p-tolyl)butanamide], with less than 100 nM; and `COc1ccc(NC(=O)CCCn2c(=O)c3cccn3c3ccncc32)cc1` [Example 2-2], with less than 100 nM.
On to `COc1cccc(NC(=O)CCCn2c(=O)c3cccn3c3ccncc32)c1` [Example 2-3], for which the IC50 was less than 100 nM.
Then `COc1ccnc(NC(=O)CCCn2c(=O)c3cccn3c3ccncc32)c1` [Example 2-4], with less than 100 nM.
Then `COc1ccc(NC(=O)CCCn2c(=O)c3cccn3c3ccncc32)nc1` [Example 2-5], with less than 100 nM.
Under `O=C(CCn1c(=O)c2cccn2c2ccc(F)cc21)N1CCCCC1` [Example 3-1, 7-Fluoro-5-[3-oxo-3-(piperidin-1-yl)propyl]-4H,5H-pyrrolo[1,2-a]quinoxalin-4-one] stands less than 100 nM; under `Cc1ccc(NC(=O)CCn2c(=O)c3cccn3c3ccc(F)cc32)cc1` [Example 3-2], less than 100 nM.
As to `COc1ccc(NC(=O)CCn2c(=O)c3cccn3c3ccc(F)cc32)cc1` [Example 3-3], the IC50 was less than 100 nM.
Then `COc1ncccc1NC(=O)CCn1c(=O)c2cccn2c2ccc(F)cc21` [Example 3-4], with less than 100 nM; and `COc1cc(NC(=O)CCn2c(=O)c3cccn3c3ccc(F)cc32)ccn1` [Example 3-5], with less than 100 nM.
Under `COc1ccc(NC(=O)CCn2c(=O)c3cccn3c3ccc(F)cc32)nc1` [Example 3-6] stands less than 100 nM; under `COc1cccc(NC(=O)CCn2c(=O)c3cccn3c3ccc(F)cc32)n1` [Example 3-7], less than 100 nM.
Then `Cc1ccc(NC(=O)CCn2c(=O)c3cccn3c3ccc(F)cc32)cn1` [Example 3-8], with less than 100 nM; and `Cn1nc(NC(=O)CCn2c(=O)c3cccn3c3ccc(F)cc32)ccc1=O` [Example 3-9], with less than 100 nM.
As to `COc1ccncc1NC(=O)CCn1c(=O)c2cccn2c2ccc(F)cc21` [Example 3-10], the IC50 was less than 100 nM.

For the origin of these results see patent US11918662B2, “Heterocyclic compounds and imaging agents for imaging huntingtin protein” (CHDI Foundation, Inc., priority 2020, dated 2024).
